Laboratory results taken from patent publication US6521443B1, “Growth medium for lactobacilli containing amino acids, nucleosides and iron” (Nestec S.A., priority 1999, dated 2003).

Tests used:
Type in all cases: cell-based
[1] = test system: L. johnsonii; assay: growth assay in milk, L. johnsonii (strain not specified)
Method: Skim milk (Difco) 10% w/v in sterile water and whole fat UHT milk (Parmalat, Italy) were used to perform the growth assays. The milk tubes were 1% inoculated from an overnight MRS culture washed twice and finally re-suspended with the same amount of sterile distilled water in order to avoid nutrient transfer via the medium.
Milk tubes were incubated aerobically in a thermostat (Sorvall Heraeus) at 37° C. for 24 hours, or anaerobically in an anaerobic incubator (Model 1024, Forma Scientific, USA) at 37° C. for 24 hours.
The chemicals supplemented to the milk were added as concentrated solutions prepared according to standard methods, i.e., the Merck Index instructions. The final pH of milk was adjusted to 6.8 after supplementation using an aqueous 4N sodium hydroxide solution. The initial pH of the 10% skim milk solution and whole fat UHT milk was 6.8 and 6.7, respectively.
(§1) The growth results were estimated by cell counts and a final pH measurement performed after 24 hours incubation at 37 ° C. Rapid Analysis of Bacterial Impedance Technique (RABIT) (Don Whitley Scientific, West Yorkshire, UK) was used to perform trials with skim and whole UHT milk for 24 hours at 37° C.
A final pH of 4.1 was measured after amino acids supplementation, but the cell count was still not satisfactory. The cell count when a 10% skim milk with 19 amino acids added increased from 1.0×10^7 CFU/ml to 40×10^7 CFU/ml, which is a factor of 40 increase but is less than the factor of 300 increase observed with 10% skim milk and yeast extract.

[2] = test system: L. johnsonii ATCC 33200; assay: omission technique with RABIT in skim milk; conditions: skim milk with four ribonucleosides and ferrous sulphate
Method: as §1
In order to determine those amino acids having an essential role for L. johnsonii growth in milk, the “omission technique” (Reiter, B. & Oram, J. D, I. Dairy Res, 29 (1962), 63-77) was applied by culturing the strain ATCC 33200^T in skim milk, adding four ribonucleosides and ferrous sulphate (positive control), supplemented with the mixture of 19 amino acids described above deprived of one particular component at each given time.

[3] = test system: Lactobacilli; assay: growth of Lactobacilli in supplemented milk (general trials); conditions: addition of ribonucleosides to milk
Method: In order to find the identity of other stimulatory substances, several trials were performed with ribonucleotide precursors, that is free bases such as adenine, guanine, cytosine, thymine, and uracil, ribonucleosides such as adenosine, cytidine, uridine, and guanosine, and 2′-deoxyribonucleosides such as deoxyadenosine, deoxyguanosine, deoxycytidine, deoxyuridine and thymidine. These compounds were supplemented to milk as concentrated alkaline or neutral solutions at different concentrations.
This finding confirmed the hypothesis that the low level of purines in milk negatively affects bacterial growth therein. […] Without being bound by theory, it is believed that the high content of orotic acid allows the synthesis of pyrimidine bases. No significant differences in pH-values were detected by the addition of free bases and deoxyribonucleosides between aerobic and anaerobic conditions. […] The positive effect was observed particularly with the addition of ribonucleosides in anaerobic environment.
as §1

In the case of `N[C@@H](CS)C(=O)O` [cysteine], the “pH in the presence of cysteine” value ([1]; aerobic conditions) is reported as 3.9, the “pH in absence of cysteine” value ([1]; anaerobic conditions) is reported as 4.3 and the “effect of amino acid on growth (RABIT, omission technique)” value (“effect of amino acid on growth” for short) [2] is reported as “excellent results”.
With `C[C@H](N)C(=O)O` [alanine] the “effect of amino acid on growth” value [2] was “excellent results”.
For `CC[C@H](C)[C@H](N)C(=O)O` [isoleucine], the “effect of amino acid on growth” value [2] was “excellent results”.
In the case of `N[C@@H](CO)C(=O)O` [serine], the “effect of amino acid on growth” value [2] is reported as “excellent results”.
With `Nc1nc2c(ncn2[C@@H]2O[C@H](CO)[C@@H](O)[C@H]2O)c(=O)[nH]1` [guanosine] the “improvement of growth conditions in milk” value [3] was “strongest effect”.
For `O=C(O)CS` [thioglycollic acid], the cell counts ([1]; aerobic conditions, final concentration 0.5% v/v, replacing cysteine) was “more than 100×10^7 CFU/ml”.
For `Nc1ncnc2c1ncn2[C@@H]1O[C@H](CO)[C@@H](O)[C@H]1O` [adenosine], the “improvement of growth conditions in milk” value [3] was “strongest effect”.
